From patent US20210267923A1, “SUCCINIC ACID AND DERIVATIVES FOR THE TREATMENT OF HAEMOTOLOGICAL DISORDERS” (ENZENE BIOSCIENCES LIMITED, priority 2018, published 2021) come the findings set out here.

Assay [1] deals with TF-1 cells. Kind of assay: In-vitro bioassay in TF1 cell lines (proliferation, alamar Blue). As to conditions: treated 48 h without rhGMCSF, normalized to cell control. On the technique in general: The colour change of resazurin is a common sign of viable cells or microbes.
For assay [2], the system named is platelet counts. The note with it: rats, 100 mg/kg twice daily P.O. for 7 days, versus water control. The protocol: A preliminary study was conducted in rats using pure succinic acid (from commercial source). Six animals were used in each group (control and treated). The treated group received a dose of 100 mg/kg succinic acid twice daily P.O. whereas the control group received water of same volume as in treated twice daily. CBC (Complete Blood counts) was performed from the blood withdrawn from individual rats.

Assay [3] relates to TF-1 cells. As to conditions: normalised to untreated cells (CC), triplicates. As to the method:
For RNA-seq analysis, TF-1 cells were either treated with the positive control GMCSF (GM) or with succinate (E01). Untreated TF-1 cells (CC) were used as a control to determine basal gene expression. RNA-seq was performed in triplicates from all the three groups. The gene expression from E01 or GM group was normalised to the expression of CC.

The subject of assay [4] is WI38 cells. As to conditions: WI38 fibroblasts, mitogen-deprived medium (0.1% FBS), 48 h in presence of succinate.

Regarding `O=C([O-])CCC(=O)[O-].[Na+].[Na+]` [Sodium Succinate], in assay [1] (listed as Na salt of succinic acid), the “cellular proliferation in TF-1 cells” value is reported as “showed proliferation activity”.
Regarding `O=C(O)CCC(=O)O` [succinic acid, Succinic acid], the platelet counts result in assay [2] was “substantially increase the platelet counts”. Further, the “cellular proliferation in TF-1 cells” value in assay [1] is listed as “dose dependent proliferation was observed”.
`O=C([O-])CCC(=O)[O-].[Mg+2]` [Mg salt of succinic acid]: the “cellular proliferation in TF-1 cells” value in assay [1] is reported as “showed proliferation activity”.
Regarding `O=C(O)CCC(=O)O` [succinate], the “gene expression changes (RNA-seq)” value in assay [3] is on record as “Several genes related to platelet differentiation pathway in succinate treated cells were identified”. In assay [4], the “cell cycle entry from quiescence” value is recorded as “entered in the cell cycle even in the absence of mitogens”.
On to `O=C([O-])CCC(=O)[O-].[Ca+2]` [Ca salt of succinic acid], for which, in assay [1], the “cellular proliferation in TF-1 cells” value is “showed proliferation activity”.
